{"source": "the NIST ThermoML archive (doi:10.1021/je700339f)", "conditions": "Liquid", "note": "± gives the expanded uncertainty stated by the source."}
{"smiles": "ClCCCCCl", "note": "[1,4-dichlorobutane]", "values": [{"measurement": "mass density", "setting": "308.15 K, 100 kPa", "value": "1122.3 ± 3.3", "unit": "kg/m3"}, {"measurement": "mass density", "setting": "308.15 K, 500 kPa", "value": "1122.7 ± 3.3", "unit": "kg/m3"}, {"measurement": "mass density", "setting": "308.15 K, 1000 kPa", "value": "1123.1 ± 3.3", "unit": "kg/m3"}, {"measurement": "mass density", "setting": "308.15 K, 1500 kPa", "value": "1123.5 ± 3.4", "unit": "kg/m3"}, {"measurement": "mass density", "setting": "308.15 K, 2000 kPa", "value": "1123.9 ± 3.4", "unit": "kg/m3"}, {"measurement": "mass density", "setting": "308.15 K, 2500 kPa", "value": "1124.3 ± 3.4", "unit": "kg/m3"}, {"measurement": "mass density", "setting": "308.15 K, 3100 kPa", "value": "1124.8 ± 3.5", "unit": "kg/m3"}, {"measurement": "mass density", "setting": "308.15 K, 3600 kPa", "value": "1125.2 ± 3.5", "unit": "kg/m3"}, {"measurement": "mass density", "setting": "308.15 K, 4100 kPa", "value": "1125.6 ± 3.5", "unit": "kg/m3"}, {"measurement": "mass density", "setting": "308.15 K, 4600 kPa", "value": "1126 ± 3.6", "unit": "kg/m3"}, {"measurement": "mass density", "setting": "308.15 K, 5100 kPa", "value": "1126.4 ± 3.6", "unit": "kg/m3"}, {"measurement": "mass density", "setting": "308.15 K, 5600 kPa", "value": "1126.9 ± 3.6", "unit": "kg/m3"}, {"measurement": "mass density", "setting": "308.15 K, 6100 kPa", "value": "1127.2 ± 3.7", "unit": "kg/m3"}, {"measurement": "mass density", "setting": "308.15 K, 6600 kPa", "value": "1127.5 ± 3.7", "unit": "kg/m3"}, {"measurement": "mass density", "setting": "308.15 K, 7100 kPa", "value": "1128 ± 3.7", "unit": "kg/m3"}, {"measurement": "mass density", "setting": "308.15 K, 7600 kPa", "value": "1128.4 ± 3.8", "unit": "kg/m3"}, {"measurement": "mass density", "setting": "308.15 K, 8100 kPa", "value": "1128.8 ± 3.8", "unit": "kg/m3"}, {"measurement": "mass density", "setting": "308.15 K, 8600 kPa", "value": "1129.2 ± 3.9", "unit": "kg/m3"}, {"measurement": "mass density", "setting": "308.15 K, 9200 kPa", "value": "1129.6 ± 3.9", "unit": "kg/m3"}, {"measurement": "mass density", "setting": "308.15 K, 9600 kPa", "value": "1130 ± 3.9", "unit": "kg/m3"}, {"measurement": "mass density", "setting": "308.15 K, 10100 kPa", "value": "1130.4 ± 4", "unit": "kg/m3"}, {"measurement": "mass density", "setting": "308.15 K, 10600 kPa", "value": "1130.9 ± 4", "unit": "kg/m3"}, {"measurement": "mass density", "setting": "308.15 K, 11100 kPa", "value": "1131.2 ± 4", "unit": "kg/m3"}, {"measurement": "mass density", "setting": "308.15 K, 11600 kPa", "value": "1131.5 ± 4.1", "unit": "kg/m3"}, {"measurement": "mass density", "setting": "308.15 K, 12100 kPa", "value": "1131.9 ± 4.1", "unit": "kg/m3"}, {"measurement": "mass density", "setting": "308.15 K, 12600 kPa", "value": "1132.4 ± 4.1", "unit": "kg/m3"}, {"measurement": "mass density", "setting": "308.15 K, 13100 kPa", "value": "1132.6 ± 4.2", "unit": "kg/m3"}, {"measurement": "mass density", "setting": "308.15 K, 13600 kPa", "value": "1133.1 ± 4.2", "unit": "kg/m3"}, {"measurement": "mass density", "setting": "308.15 K, 14100 kPa", "value": "1133.5 ± 4.2", "unit": "kg/m3"}, {"measurement": "mass density", "setting": "308.15 K, 14700 kPa", "value": "1133.9 ± 4.3", "unit": "kg/m3"}, {"measurement": "mass density", "setting": "308.15 K, 15100 kPa", "value": "1134.2 ± 4.3", "unit": "kg/m3"}, {"measurement": "mass density", "setting": "308.15 K, 15700 kPa", "value": "1134.6 ± 4.4", "unit": "kg/m3"}, {"measurement": "mass density", "setting": "308.15 K, 16200 kPa", "value": "1135 ± 4.4", "unit": "kg/m3"}, {"measurement": "mass density", "setting": "308.15 K, 16700 kPa", "value": "1135.3 ± 4.4", "unit": "kg/m3"}, {"measurement": "mass density", "setting": "308.15 K, 17200 kPa", "value": "1135.7 ± 4.5", "unit": "kg/m3"}, {"measurement": "mass density", "setting": "308.15 K, 17800 kPa", "value": "1136.1 ± 4.5", "unit": "kg/m3"}, {"measurement": "mass density", "setting": "308.15 K, 18300 kPa", "value": "1136.5 ± 4.6", "unit": "kg/m3"}, {"measurement": "mass density", "setting": "308.15 K, 18800 kPa", "value": "1136.8 ± 4.6", "unit": "kg/m3"}, {"measurement": "mass density", "setting": "308.15 K, 19200 kPa", "value": "1137.2 ± 4.6", "unit": "kg/m3"}, {"measurement": "mass density", "setting": "308.15 K, 19700 kPa", "value": "1137.6 ± 4.7", "unit": "kg/m3"}, {"measurement": "mass density", "setting": "308.15 K, 20200 kPa", "value": "1138 ± 4.7", "unit": "kg/m3"}, {"measurement": "mass density", "setting": "318.15 K, 100 kPa", "value": "1112 ± 3.2", "unit": "kg/m3"}, {"measurement": "mass density", "setting": "318.15 K, 500 kPa", "value": "1112.4 ± 3.2", "unit": "kg/m3"}, {"measurement": "mass density", "setting": "318.15 K, 1000 kPa", "value": "1112.8 ± 3.2", "unit": "kg/m3"}, {"measurement": "mass density", "setting": "318.15 K, 1500 kPa", "value": "1113.2 ± 3.3", "unit": "kg/m3"}, {"measurement": "mass density", "setting": "318.15 K, 2000 kPa", "value": "1113.7 ± 3.3", "unit": "kg/m3"}, {"measurement": "mass density", "setting": "318.15 K, 2500 kPa", "value": "1114.1 ± 3.3", "unit": "kg/m3"}, {"measurement": "mass density", "setting": "318.15 K, 3100 kPa", "value": "1114.7 ± 3.4", "unit": "kg/m3"}, {"measurement": "mass density", "setting": "318.15 K, 3500 kPa", "value": "1115 ± 3.4", "unit": "kg/m3"}, {"measurement": "mass density", "setting": "318.15 K, 4100 kPa", "value": "1115.5 ± 3.4", "unit": "kg/m3"}, {"measurement": "mass density", "setting": "318.15 K, 4600 kPa", "value": "1115.9 ± 3.5", "unit": "kg/m3"}, {"measurement": "mass density", "setting": "318.15 K, 5100 kPa", "value": "1116.3 ± 3.5", "unit": "kg/m3"}, {"measurement": "mass density", "setting": "318.15 K, 5600 kPa", "value": "1116.8 ± 3.5", "unit": "kg/m3"}, {"measurement": "mass density", "setting": "318.15 K, 6100 kPa", "value": "1117.3 ± 3.6", "unit": "kg/m3"}, {"measurement": "mass density", "setting": "318.15 K, 6600 kPa", "value": "1117.7 ± 3.6", "unit": "kg/m3"}, {"measurement": "mass density", "setting": "318.15 K, 7100 kPa", "value": "1118.1 ± 3.6", "unit": "kg/m3"}, {"measurement": "mass density", "setting": "318.15 K, 7600 kPa", "value": "1118.4 ± 3.7", "unit": "kg/m3"}, {"measurement": "mass density", "setting": "318.15 K, 8100 kPa", "value": "1118.9 ± 3.7", "unit": "kg/m3"}, {"measurement": "mass density", "setting": "318.15 K, 8600 kPa", "value": "1119.3 ± 3.7", "unit": "kg/m3"}, {"measurement": "mass density", "setting": "318.15 K, 9200 kPa", "value": "1119.8 ± 3.8", "unit": "kg/m3"}, {"measurement": "mass density", "setting": "318.15 K, 9600 kPa", "value": "1120.2 ± 3.8", "unit": "kg/m3"}, {"measurement": "mass density", "setting": "318.15 K, 10100 kPa", "value": "1120.6 ± 3.8", "unit": "kg/m3"}, {"measurement": "mass density", "setting": "318.15 K, 10600 kPa", "value": "1121 ± 3.9", "unit": "kg/m3"}, {"measurement": "mass density", "setting": "318.15 K, 11100 kPa", "value": "1121.4 ± 3.9", "unit": "kg/m3"}, {"measurement": "mass density", "setting": "318.15 K, 11600 kPa", "value": "1121.8 ± 3.9", "unit": "kg/m3"}, {"measurement": "mass density", "setting": "318.15 K, 12100 kPa", "value": "1122.1 ± 4", "unit": "kg/m3"}, {"measurement": "mass density", "setting": "318.15 K, 12600 kPa", "value": "1122.6 ± 4", "unit": "kg/m3"}, {"measurement": "mass density", "setting": "318.15 K, 13000 kPa", "value": "1123 ± 4", "unit": "kg/m3"}, {"measurement": "mass density", "setting": "318.15 K, 13600 kPa", "value": "1123.3 ± 4.1", "unit": "kg/m3"}, {"measurement": "mass density", "setting": "318.15 K, 14200 kPa", "value": "1123.9 ± 4.1", "unit": "kg/m3"}, {"measurement": "mass density", "setting": "318.15 K, 14700 kPa", "value": "1124.4 ± 4.1", "unit": "kg/m3"}, {"measurement": "mass density", "setting": "318.15 K, 15200 kPa", "value": "1124.7 ± 4.2", "unit": "kg/m3"}, {"measurement": "mass density", "setting": "318.15 K, 15700 kPa", "value": "1125.1 ± 4.2", "unit": "kg/m3"}, {"measurement": "mass density", "setting": "318.15 K, 16300 kPa", "value": "1125.4 ± 4.3", "unit": "kg/m3"}, {"measurement": "mass density", "setting": "318.15 K, 16800 kPa", "value": "1126 ± 4.3", "unit": "kg/m3"}, {"measurement": "mass density", "setting": "318.15 K, 17300 kPa", "value": "1126.3 ± 4.3", "unit": "kg/m3"}, {"measurement": "mass density", "setting": "318.15 K, 17800 kPa", "value": "1126.5 ± 4.4", "unit": "kg/m3"}, {"measurement": "mass density", "setting": "318.15 K, 18300 kPa", "value": "1127 ± 4.4", "unit": "kg/m3"}, {"measurement": "mass density", "setting": "318.15 K, 18800 kPa", "value": "1127.4 ± 4.4", "unit": "kg/m3"}, {"measurement": "mass density", "setting": "318.15 K, 19200 kPa", "value": "1127.7 ± 4.5", "unit": "kg/m3"}, {"measurement": "mass density", "setting": "318.15 K, 19700 kPa", "value": "1128 ± 4.5", "unit": "kg/m3"}, {"measurement": "mass density", "setting": "318.15 K, 20200 kPa", "value": "1128.4 ± 4.5", "unit": "kg/m3"}]}
